{
  "source": "patent US11572398B2",
  "about": "“GLP-1 derivatives and uses thereof” (Novo Nordisk A/S, priority 2014, dated 2023)",
  "key": {"human GLP-1 receptor [1]": {"target": "T1, human GLP-1 receptor (Homo sapiens, UniProt P43220)", "T1 construct": "expressed in transfected cells; host or cells: BHK cells (parent line BHKTS13), clone FCW467-12A; membrane preparation", "T1 sequence (P43220 24-463)": "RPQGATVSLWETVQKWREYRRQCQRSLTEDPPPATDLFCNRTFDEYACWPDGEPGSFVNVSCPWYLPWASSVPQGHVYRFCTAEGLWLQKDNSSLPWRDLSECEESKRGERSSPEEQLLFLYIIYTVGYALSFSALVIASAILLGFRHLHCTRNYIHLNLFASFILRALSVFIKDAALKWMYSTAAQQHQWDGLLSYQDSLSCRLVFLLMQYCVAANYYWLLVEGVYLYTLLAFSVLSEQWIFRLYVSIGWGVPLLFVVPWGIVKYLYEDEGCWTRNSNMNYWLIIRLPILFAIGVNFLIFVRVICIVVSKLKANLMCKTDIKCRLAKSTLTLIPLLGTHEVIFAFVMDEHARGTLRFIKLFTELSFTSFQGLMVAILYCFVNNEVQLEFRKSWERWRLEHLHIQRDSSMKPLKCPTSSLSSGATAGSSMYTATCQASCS", "assay": "GLP-1 receptor binding: competitive binding assay (125I-GLP-1, SPA) on isolated membranes at low and high HSA", "protocol": "The purpose of this example is to test the receptor binding of the GLP-1 derivatives in vitro. The receptor binding is a measure of affinity of a derivative for the human GLP-1 receptor.\nEach derivative is added in a series of concentrations to isolated membranes containing the human GLP-1 receptor and displacement of the labelled ligand is monitored. The receptor binding is reported as the concentration at which half of the labelled ligand is displaced from the receptor, the IC50 value.\nBuffer 1 consisted of 20 mM Na-HEPES plus 10 mM EDTA and pH was adjusted to 7.4. Buffer 2 consisted of 20 mM Na-HEPES plus 0.1 mM EDTA and pH was adjusted to 7.4. Assay buffer consisted of 50 mM HEPES supplemented with 5 mM EGTA, 5 mM MgCl2, 0.005% Tween 20 and pH was adjusted to 7.4. An 8% albumin stock consisted of HSA dissolved at 8% (w/v) in assay buffer. An 0.02% albumin stock consisted of HSA dissolved at 0.02% (w/v) in assay buffer.\nThe cells express the human GLP-1 receptor.\nThe cells were grown at 5% CO2 in DMEM, 10% fetal calf serum, 1% Pen/Strep (Penicillin/Streptomycin) and 1.0 mg/ml of the selection marker G418. To make a membrane preparation the cells were grown to approximately 80% confluence. The cells were washed twice in phosphate-buffered saline and harvested. The cells were pelleted using a brief centrifugation and the cell pellet was kept on ice. […] The homogenate was centrifuged for 15 minutes. The pellet was re-suspended (homogenised) in 10 ml buffer 2 and centrifuged. This step was repeated once more. The resulting pellet was re-suspended in buffer 2 and the protein concentration was determined. The membranes were aliquoted and stored at minus 80° C.\n1. […] Assay continued with step 3.\n2. For the receptor binding assay in the presence of high HSA (2%) 50 μl of the 8% albumin stock was added to each well of an assay plate. Assay continued with step 3.\n4. Cell membrane aliquots were thawed and diluted to their working concentration. Fifty μl were added to each well in the assay plate.\n5. WGA SPA beads were suspended in assay buffer at 20 mg/ml. The suspension was diluted to 10 mg/ml in assay buffer just prior to addition to the assay plate. Fifty μl were added to each well in the assay plate.\n6. […] A 25 μl aliquot was reserved for measuring total counts/well.\n7. The assay plate was incubated for 2 h at 30° C.\n8. The assay plate was centrifuged for 10 min.\n9. The assay plate was read in a Packard TopCount NXT instrument.\nThe data from the TopCount instrument were transferred to GraphPad Prism software. Individual replicates were analysed using non-linear regression. IC50 values were calculated by the software and reported in nM. The reported values are averages of all of the measured values for each compound."}, "human GLP-1 receptor [2]": {"target": "T1, human GLP-1 receptor", "assay": "In vitro potency: CRE luciferase reporter gene assay in BHK cells expressing the human GLP-1 receptor", "type": "cell-based", "settings": "whole cell reporter gene assay, BHK cells, human GLP-1 receptor; average of at least two replicates; read-out: EC50", "protocol": "The purpose of this example is to test the activity, or potency, of the GLP-1 derivatives in vitro. The in vitro potency is the measure of human GLP-1 receptor activation in a whole cell assay.\nIn vitro potency was determined by measuring the response of the human GLP-1 receptor in a reporter gene assay. The assay was performed in a stably transfected BHK cell line that expresses the human GLP-1 receptor and contains the DNA for the cAMP response element (CRE) coupled to a promoter and the gene for firefly luciferase (CRE luciferase). When the human GLP-1 receptor is activated it results in the production of cAMP, which in turn results in the luciferase protein being expressed. When assay incubation is completed the luciferase substrate (luciferin) is added and the enzyme converts luciferin to oxyluciferin to produce bioluminescence. The luminescence is measured as the readout for the assay.\nThe cells were cultured at 5% CO2 in cell culture medium. They were aliquoted and stored in liquid nitrogen. Before each assay an aliquot was taken up and washed twice in PBS before being suspended at the desired concentration in the assay specific buffer.\nThe assay buffer consisted of 2% ovalbumin and 0.2% Pluronic F-68 in assay medium.\n1) Cell stocks were thawed in a 37° C. water bath.\n2) Cells were washed three times in PBS.\n3) Cells were counted and adjusted to 5×10^3 cells/50 μl (1×10^5 cells/ml) in assay medium. A 50 μl aliquot of cells was transferred to each well in the assay plate.\n4) Stocks of the test compounds and reference compounds were diluted to a concentration of 0.2 μM in assay buffer. […] 8) A 100 μl aliquot of steadylite plus reagent was added to each well of the assay plate. 9) Each assay plate was covered with aluminum foil to protect it from light and shaken for 30 min at room temperature. 10) Each assay plate was read in a BioTek Synergy 2 Multi-Mode Reader. Calculations and Results\nThe data from the BioTek Synergy 2 Multi-Mode Reader were transferred to GraphPad Prism software. The software performs a non-linear regression (log(agonist) vs response (three parameters)).\nA minimum of two replicates were measured for each sample. The reported EC50 values are averages of all of the measured values for each compound."}, "[3]": {"settings": "high HSA (2.0% final assay concentration), read-out: High HSA IC50"}, "[4]": {"settings": "low HSA (max. 0.001% final assay concentration), read-out: Low HSA IC50"}},
  "note": "Where two headings read alike, the source gives them in different places.",
  "data": [
    {"molecule": "CC[C@H](C)[C@H](NC(=O)[C@H](Cc1ccccc1)NC(=O)[C@H](CCC(=O)O)NC(=O)[C@H](CCCNC(=N)N)NC(=O)[C@H](C)NC(=O)[C@H](C)NC(=O)[C@H](CCC(N)=O)NC(=O)[C@H](CCC(=O)O)NC(=O)[C@H](CCC(=O)O)NC(=O)[C@H](CC(C)C)NC(=O)[C@H](Cc1ccc(O)cc1)NC(=O)[C@H](CO)NC(=O)[C@H](CO)NC(=O)[C@@H](NC(=O)[C@H](CC(=O)O)NC(=O)[C@H](CO)NC(=O)[C@@H](NC(=O)[C@H](Cc1ccccc1)NC(=O)[C@@H](NC(=O)CNC(=O)[C@H](CCC(=O)O)NC(=O)C(C)(C)NC(=O)[C@@H](N)Cc1c[nH]cn1)[C@@H](C)O)[C@@H](C)O)C(C)C)C(=O)N[C@@H](C)C(=O)N[C@@H](Cc1c[nH]c2ccccc12)C(=O)N[C@@H](CC(C)C)C(=O)N[C@H](C(=O)N[C@@H](CCCNC(=N)N)C(=O)NCC(=O)N[C@@H](CCCNC(=N)N)C(=O)N[C@@H](CCCCNC(=O)CN(CCCNC(=O)CCOCCOCCOCCOCCOCCOCCOCCOCCOCCOCCOCCOCCNC(=O)[C@@H](N)CCCCNC(=O)[C@@H](N)CCCCNC(=O)CCCCCCCCCCCCCCCCCCC(=O)O)CCCNC(=O)CCOCCOCCOCCOCCOCCOCCOCCOCCOCCOCCOCCOCCNC(=O)[C@@H](N)CCCCNC(=O)[C@@H](N)CCCCNC(=O)CCCCCCCCCCCCCCCCCCC(=O)O)C(=O)O)C(C)C", "note": "[Example 8, N{Epsilon-37}-[2-[bis[3-[3-[2-[2-[2-[2-[2-[2-[2-[2-[2-[2-[2-[2-[[(2S)-2-amino-6-[[(2S)-2-amino-6-(19-carboxynonadecanoylamino)hexanoyl]amino]hexanoyl]amino]ethoxy]ethoxy]ethoxy]ethoxy]ethoxy]ethoxy]ethoxy]ethoxy]ethoxy]ethoxy]ethoxy]ethoxy]propanoylamino]propyl]amino]acetyl]-[Aib8,Glu22,Arg26,Arg34,Lys37]-GLP-1-(7-37)-peptide]", "values": [
      {"measurement": "IC50", "setting": "human GLP-1 receptor [1]; [3]", "value": 27000, "unit": "pM"},
      {"measurement": "IC50", "setting": "human GLP-1 receptor [1]; [4]", "value": 190, "unit": "pM"},
      {"measurement": "EC50", "setting": "human GLP-1 receptor [2]", "value": 10, "unit": "pM"}
    ]},
    {"molecule": "CC[C@H](C)[C@H](NC(=O)[C@H](Cc1ccccc1)NC(=O)[C@H](CCC(=O)O)NC(=O)[C@H](CCCNC(=N)N)NC(=O)[C@H](C)NC(=O)[C@H](C)NC(=O)[C@H](CCC(N)=O)NC(=O)[C@H](CCC(=O)O)NC(=O)[C@H](CCC(=O)O)NC(=O)[C@H](CC(C)C)NC(=O)[C@H](Cc1ccc(O)cc1)NC(=O)[C@H](CO)NC(=O)[C@H](CO)NC(=O)[C@@H](NC(=O)[C@H](CC(=O)O)NC(=O)[C@H](CO)NC(=O)[C@@H](NC(=O)[C@H](Cc1ccccc1)NC(=O)[C@@H](NC(=O)CNC(=O)[C@H](CCC(=O)O)NC(=O)C(C)(C)NC(=O)[C@@H](N)Cc1c[nH]cn1)[C@@H](C)O)[C@@H](C)O)C(C)C)C(=O)N[C@@H](C)C(=O)N[C@@H](Cc1c[nH]c2ccccc12)C(=O)N[C@@H](CC(C)C)C(=O)N[C@H](C(=O)N[C@@H](CCCNC(=N)N)C(=O)NCC(=O)N[C@@H](CCCNC(=N)N)C(=O)N[C@@H](CCCCNC(=O)CN(CCCNC(=O)COCCOCCNC(=O)COCCOCCNC(=O)COCCOCCNC(=O)COCCOCCNC(=O)COCCOCCNC(=O)COCCOCCNC(=O)CC[C@H](NC(=O)[C@H]1CC[C@H](CNC(=O)CCCCCCCCCCCCCCCS(=O)(=O)O)CC1)C(=O)O)CCCNC(=O)COCCOCCNC(=O)COCCOCCNC(=O)COCCOCCNC(=O)COCCOCCNC(=O)COCCOCCNC(=O)COCCOCCNC(=O)CC[C@H](NC(=O)[C@H]1CC[C@H](CNC(=O)CCCCCCCCCCCCCCCS(=O)(=O)O)CC1)C(=O)O)C(=O)O)C(C)C", "note": "[Example 24]", "values": [
      {"measurement": "IC50", "setting": "human GLP-1 receptor [1]; Low HSA IC50, low HSA (max. 0.001% final assay concentration)", "value": 160, "unit": "pM"},
      {"measurement": "IC50", "setting": "human GLP-1 receptor [1]; [3]", "value": 32000, "unit": "pM"},
      {"measurement": "EC50", "setting": "human GLP-1 receptor [2]", "value": 1.8, "unit": "pM"}
    ]},
    {"molecule": "CC[C@H](C)[C@H](NC(=O)[C@H](Cc1ccccc1)NC(=O)[C@H](CCC(=O)O)NC(=O)[C@H](CCCNC(=N)N)NC(=O)[C@H](C)NC(=O)[C@H](C)NC(=O)[C@H](CCC(N)=O)NC(=O)[C@H](CCC(=O)O)NC(=O)[C@H](CCC(=O)O)NC(=O)[C@H](CC(C)C)NC(=O)[C@H](Cc1ccc(O)cc1)NC(=O)[C@H](CO)NC(=O)[C@H](CO)NC(=O)[C@@H](NC(=O)[C@H](CC(=O)O)NC(=O)[C@H](CO)NC(=O)[C@@H](NC(=O)[C@H](Cc1ccccc1)NC(=O)[C@@H](NC(=O)CNC(=O)[C@H](CCC(=O)O)NC(=O)C(C)(C)NC(=O)[C@@H](N)Cc1c[nH]cn1)[C@@H](C)O)[C@@H](C)O)C(C)C)C(=O)N[C@@H](C)C(=O)N[C@@H](Cc1c[nH]c2ccccc12)C(=O)N[C@@H](CC(C)C)C(=O)N[C@H](C(=O)N[C@@H](CCCNC(=N)N)C(=O)NCC(=O)N[C@@H](CCCNC(=N)N)C(=O)N[C@@H](CCCCNC(=O)CN(CCCNC(=O)COCCOCCNC(=O)COCCOCCNC(=O)COCCOCCNC(=O)COCCOCCNC(=O)CC[C@H](NC(=O)CCCNC(=O)CCCCCCCCCCCCCCCS(=O)(=O)O)C(=O)O)CCCNC(=O)COCCOCCNC(=O)COCCOCCNC(=O)COCCOCCNC(=O)COCCOCCNC(=O)CC[C@H](NC(=O)CCCNC(=O)CCCCCCCCCCCCCCCS(=O)(=O)O)C(=O)O)C(=O)O)C(C)C", "note": "[Example 16, N{Epsilon-37}-[2-[bis[3-[[2-[2-[2-[[2-[2-[2-[[2-[2-[2-[[2-[2-[2-[[(4S)-4-carboxy-4-[4-(16-sulfohexadecanoylamino)butanoylamino]butanoyl]amino]ethoxy]ethoxy]acetyl]amino]ethoxy]ethoxy]acetyl]amino]ethoxy]ethoxy]acetyl]amino]ethoxy]ethoxy]acetyl]amino]propyl]amino]acetyl]-[Aib8,Glu22,Arg26,Arg34,Lys37]-GLP-1-(7-37)-peptide]", "values": [
      {"measurement": "IC50", "setting": "human GLP-1 receptor [1]; [3]", "value": 3300, "unit": "pM"},
      {"measurement": "IC50", "setting": "human GLP-1 receptor [1]; [4]", "value": 100, "unit": "pM"},
      {"measurement": "EC50", "setting": "human GLP-1 receptor [2]", "value": 1.7, "unit": "pM"}
    ]}
  ]
}
